Structures are written as SMILES.

Assay type in all cases: cell-based
Assay [1] deals with T1, Sialidase-3 (Homo sapiens, UniProt Q9UQ49).
T1 sequence (Q9UQ49 whole entry): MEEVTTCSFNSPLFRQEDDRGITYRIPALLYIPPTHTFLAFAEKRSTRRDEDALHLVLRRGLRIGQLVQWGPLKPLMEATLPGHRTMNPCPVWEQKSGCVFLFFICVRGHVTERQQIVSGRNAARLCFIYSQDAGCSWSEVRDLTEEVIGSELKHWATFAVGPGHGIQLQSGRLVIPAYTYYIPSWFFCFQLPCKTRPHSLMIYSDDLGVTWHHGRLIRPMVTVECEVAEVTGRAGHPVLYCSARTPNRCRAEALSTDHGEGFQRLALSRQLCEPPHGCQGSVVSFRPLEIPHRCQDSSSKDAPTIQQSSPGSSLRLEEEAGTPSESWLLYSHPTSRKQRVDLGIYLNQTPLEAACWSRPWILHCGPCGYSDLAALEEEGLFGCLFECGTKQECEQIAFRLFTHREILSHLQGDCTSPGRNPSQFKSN
Kind of assay: Inhibition of human NEU3 expressed in HEK293 cells by fluorometric high-performance liquid chromatography using ganglioside GM3 substrate.

Assay [2] has as its target T1, Sialidase-3. Briefly: Inhibition of human NEU3 expressed in HEK293 cells by fluorometric high-performance liquid chromatography using 4MU-NeuAc substrate.
Assay [3] concerns the target T2, Sialidase-4 (Homo sapiens, UniProt Q8WWR8).
T2 sequence (Q8WWR8 whole entry): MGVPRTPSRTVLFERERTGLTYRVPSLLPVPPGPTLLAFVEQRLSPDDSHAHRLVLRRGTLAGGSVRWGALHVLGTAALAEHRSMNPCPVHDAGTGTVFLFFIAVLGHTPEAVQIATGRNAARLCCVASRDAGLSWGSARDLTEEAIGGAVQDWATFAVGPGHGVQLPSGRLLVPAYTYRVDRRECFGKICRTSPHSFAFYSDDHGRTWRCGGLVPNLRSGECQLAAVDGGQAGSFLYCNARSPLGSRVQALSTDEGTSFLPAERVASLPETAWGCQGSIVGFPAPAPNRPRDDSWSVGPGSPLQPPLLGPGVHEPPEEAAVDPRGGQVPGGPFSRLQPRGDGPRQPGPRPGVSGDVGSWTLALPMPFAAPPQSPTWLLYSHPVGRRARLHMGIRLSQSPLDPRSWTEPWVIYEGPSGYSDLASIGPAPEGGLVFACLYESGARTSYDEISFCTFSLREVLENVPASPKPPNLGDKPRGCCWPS
Briefly: Inhibition of human NEU4 expressed in HEK293 cells by fluorometric high-performance liquid chromatography using 4MU-NeuAc substrate.

Assay [4] has as its target Sialidase-1 (Homo sapiens, UniProt Q99519). Kind of assay: Inhibition of human NEU1 expressed in HEK293 cells by fluorometric high-performance liquid chromatography using 4MU-NeuAc substrate.

For the molecule `CC(=O)N[C@H]1[C@H]([C@H](O)[C@H](O)CO)OC(C(=O)O)=C[C@@H]1O` [NEU5AC2EN], in assay [1], the IC50 amounted to 0.0703 mM.

As to `CCOC(=O)C1=C[C@@H](OC(CC)CC)[C@H](NC(C)=O)[C@@H](N)C1` [OSELTAMIVIR], the IC50 in assay [2], in assay [3] and in assay [4] was greater than 10 mM each time.

The molecule `CC(=O)N[C@H]1[C@H]([C@H](O)[C@H](O)CO)OC(C(=O)O)=C[C@@H]1N=C(N)N` [ZANAMIVIR] returned an IC50 in assay [4] of 2.71 mM.

Source of the values: ChEMBL document CHEMBL1275523 (Antimicrob Agents Chemother, 2008).
